Data on one molecule can be found in patent publication US20240024307A1, “PHARMACEUTICAL COMBINATION OF A CORTICOSTEROID AND AN ANTIHISTAMINE FOR THE TREATMENT AND CONTROL OF THE INFLAMMATORY COMPONENT OF ALLERGIC PROCESSES” (priority 2020, published 2024).

Data set [1] in a line: Comparative bioavailability study, 5 mg desloratadine and 0.25 mg betamethasone alone or in combination, single dose, healthy subjects, fasting. The settings on record: analyte desloratadine, 5 mg single dose. An excerpt: The study design was crossover, 3×6×3 open, prospective, and longitudinal, truncated to single dose.
Three treatments, three periods, six sequences with an elimination period of 14 days and with a total of 24 healthy subjects of both genders, in fasting conditions.

For data set [2] the following is noted: 40° C. and 75% RH; alone or in combination with various excipients; cited from earlier work.

Turning to `Clc1ccc2c(c1)CCc1cccnc1C2=C1CCNCC1` [Desloratadine, desloratadine], the “Elimination constant Ke” value in data set [1] is 0.0408 ± 0.009 h⁻¹. Besides, the colour stability result in data set [2] is reported as “exhibits color changes”.
